IC50 data for 27 compounds are collected here from US9902722B2, “Biaryl kinase inhibitors” (BRISTOL-MYERS SQUIBB COMPANY, priority 2014, dated 2018).

Molecules are shown by their SMILES.

In this experiment the target is GST-Xa-hAAK1 (Homo sapiens (Human), UniProt Q2M2I8). In words: AAK1 Kinase Assay.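 Also: each compound tested across an eleven-point concentration series, with IC50 obtained through non-linear regression fitting.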 The experiment is classed as biochemical. Conditions: bacterially expressed GST-Xa-hAAK1 3.5 nM; ATP 22 μM; peptide substrate 1.5 μM; 3 hours at room temperature; Caliper LabChip 3000.
Sequence of GST-Xa-hAAK1 (Q2M2I8 whole entry): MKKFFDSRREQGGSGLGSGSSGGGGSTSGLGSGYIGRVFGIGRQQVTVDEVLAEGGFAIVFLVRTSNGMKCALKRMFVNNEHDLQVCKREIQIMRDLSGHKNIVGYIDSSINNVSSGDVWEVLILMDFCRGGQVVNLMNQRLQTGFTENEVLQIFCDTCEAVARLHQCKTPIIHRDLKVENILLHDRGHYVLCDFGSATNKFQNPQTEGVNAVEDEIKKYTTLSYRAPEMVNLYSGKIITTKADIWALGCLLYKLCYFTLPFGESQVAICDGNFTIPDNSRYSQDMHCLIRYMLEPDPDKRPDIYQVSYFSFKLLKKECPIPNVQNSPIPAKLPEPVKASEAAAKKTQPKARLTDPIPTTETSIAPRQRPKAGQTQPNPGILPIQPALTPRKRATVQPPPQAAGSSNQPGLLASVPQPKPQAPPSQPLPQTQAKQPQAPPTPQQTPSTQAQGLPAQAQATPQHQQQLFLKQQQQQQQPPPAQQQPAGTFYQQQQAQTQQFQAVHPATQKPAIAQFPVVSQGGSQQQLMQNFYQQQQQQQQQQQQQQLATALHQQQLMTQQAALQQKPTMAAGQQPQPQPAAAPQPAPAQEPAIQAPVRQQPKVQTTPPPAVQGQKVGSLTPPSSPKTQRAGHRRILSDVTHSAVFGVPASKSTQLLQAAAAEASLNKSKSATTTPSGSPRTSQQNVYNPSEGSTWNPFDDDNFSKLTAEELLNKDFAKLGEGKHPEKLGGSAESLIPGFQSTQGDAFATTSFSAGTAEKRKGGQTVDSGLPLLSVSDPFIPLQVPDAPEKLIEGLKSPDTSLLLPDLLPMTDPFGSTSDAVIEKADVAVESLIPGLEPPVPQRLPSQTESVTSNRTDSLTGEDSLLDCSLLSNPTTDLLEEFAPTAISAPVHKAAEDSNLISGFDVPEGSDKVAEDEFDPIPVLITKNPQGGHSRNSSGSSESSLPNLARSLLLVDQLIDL
Protocol: The assays were performed in U-bottom 384-well plates. […] The reactions were initiated by the combination of bacterially expressed, GST-Xa-hAAK1 with substrates and test compounds. The reactions were incubated at room temperature for 3 hours and terminated by adding 60 μl of 35 mM EDTA buffer to each sample. […] Compounds were dissolved at 10 mM in dimethylsulfoxide (DMSO) and evaluated at eleven concentrations. IC50 values were derived by non-linear regression analysis.
With `CC(=O)Nc1cc(-c2ccc(OC[C@@H](N)CC(C)C)c(C)c2)ccn1` [Example 7, (S)—N-(4-(4-((2-amino-4-methylpentyl)oxy)-3-methylphenyl)pyridin-2-yl)acetamide], the IC50 (as a rule, the concentration that gives 50% inhibition) came to 0.42 nM.
Under `Cc1nccc(-c2ccc(OC[C@@](C)(N)CC(C)C)c(C#N)c2)c1F` [Example 103, (S)-2-((2-amino-2,4-dimethylpentyl)oxy)-5-(3-fluoro-2-methylpyridin-4-yl)benzonitrile] stands 0.68 nM; under `Cc1cc(-c2cc(C(F)F)c(OC[C@@](C)(N)CC(C)C)cn2)cnn1` [Example 162, (S)-1-((4-(difluoromethyl)-6-(6-methylpyridazin-4-yl)pyridin-3-yl)oxy)-2,4-dimethylpentan-2-amine], 530 nM.
Under `CC(C)C[C@](C)(N)COc1ccc(-c2ccnc3cc(F)ccc23)nc1C(F)F` [Example 128, (S)-1-((2-(difluoromethyl)-6-(7-fluoroquinolin-4-yl)pyridin-3-yl)oxy)-2,4-dimethylpentan-2-amine] stands 3.5 nM.
Under `COC(=O)Nc1cc(-c2ccc(OC[C@@](C)(N)CC(C)C)c(C(F)F)c2)ccn1` [Example 24, (S)-methyl (4-(4-((2-amino-2,4-dimethylpentyl)oxy)-3-(difluoromethyl)phenyl)pyridin-2-yl)carbamate] stands 0.63 nM.
`CC(C)C[C@](C)(N)COc1ccc(-c2ccnc3ccccc23)cc1C#N` [Example 104, (S)-2-((2-amino-2,4-dimethylpentyl)oxy)-5-(quinolin-4-yl)benzonitrile] came in with an IC50 of 0.83 nM.
Under `Cc1cc(-c2ccnc3ccc(F)cc23)cnc1OC[C@@](C)(N)CC(C)C` [Example 223, (S)-1-((5-(6-fluoroquinolin-4-yl)-3-methylpyridin-2-yl)oxy)-2,4-dimethylpentan-2-amine] stands 0.88 nM; under `CC(=O)Nc1cc(-c2cc(F)c(OC[C@@H](N)CC(C)C)c(Cl)c2)ccn1` [Example 10, (S)—N-(4-(4-((2-amino-4-methylpentyl)oxy)-3-chloro-5-fluorophenyl)pyridin-2-yl)acetamide], 10 nM.
The compound `Cc1cc(-c2cnc(OC[C@@](C)(N)CC(C)C)c(C(F)(F)F)c2)ccn1` [Example 221, (S)-2,4-dimethyl-1-((2′-methyl-5-(trifluoromethyl)-[3,4′-bipyridin]-6-yl)oxy)pentan-2-amine] showed an IC50 of 4.1 nM.
Under `Cc1ccc2c(-c3ccc(OC[C@@](C)(N)CC(C)C)c(C#N)c3)ccnc2c1` [Example 102, (S)-2-((2-amino-2,4-dimethylpentyl)oxy)-5-(7-methylquinolin-4-yl)benzonitrile] stands 1.3 nM; under `COC(=O)Nc1cc(-c2ccc(OC[C@@](C)(N)CC(C)C)c(C#N)c2)ccn1` [Example 22, (S)-methyl (4-(4-((2-amino-2,4-dimethylpentyl)oxy)-3-cyanophenyl)pyridin-2-yl)carbamate], 0.65 nM; under `CC(C)C[C@](C)(N)COc1cnc(-c2ccnc3cc(F)ccc23)cc1Cl` [Example 241, (S)-1-((4-chloro-6-(7-fluoroquinolin-4-yl)pyridin-3-yl)oxy)-2,4-dimethylpentan-2-amine], 0.86 nM.
Under `CC(C)C[C@@](N)(CF)COc1ccc(-c2ccnc(C(F)F)c2)nc1C(F)F` [Example 183, (S)-1-((2′,6-bis(difluoromethyl)-[2,4′-bipyridin]-5-yl)oxy)-2-(fluoromethyl)-4-methylpentan-2-amine] stands 8.8 nM; under `CC(C)C[C@](C)(N)COc1ccc(-c2ccnc3[nH]ccc23)cc1C(F)(F)F` [Example 84, (S)-1-(4-(1H-pyrrolo[2,3-b]pyridin-4-yl)-2-(trifluoromethyl)phenoxy)-2,4-dimethylpentan-2-amine], 2.2 nM; under `CC(C)C[C@](C)(N)COc1ccc(-c2ccnc(C(F)F)c2)cc1C(F)(F)F` [Example 35, (S)-1-(4-(2-(difluoromethyl)pyridin-4-yl)-2-(trifluoromethyl)phenoxy)-2,4-dimethylpentan-2-amine], 0.77 nM.
Under `Cc1cc(-c2ccnc3cc(Cl)ccc23)cnc1OC[C@@](C)(N)CC(C)C` [Example 225, (S)-1-((5-(7-chloroquinolin-4-yl)-3-methylpyridin-2-yl)oxy)-2,4-dimethylpentan-2-amine] stands 0.74 nM; under `CC(C)C[C@](C)(N)COc1ccc(-c2ccnc(C(F)F)c2)cc1C(F)F` [Example 37, (S)-1-(2-(difluoromethyl)-4-(2-(difluoromethyl)pyridin-4-yl)phenoxy)-2,4-dimethylpentan-2-amine], 0.51 nM.
In turn, `COC(=O)Nc1cc(-c2ccc(OC[C@@](C)(N)CC(C)C)c(C(F)F)n2)ccn1` [Example 117, (S)-methyl (5-((2-amino-2,4-dimethylpentyl)oxy)-6-(difluoromethyl)-[2,4′-bipyridin]-2′-yl)carbamate] came in with an IC50 of 1 nM.
Under `Cc1cc(-c2ccnc3cc(C#N)ccc23)cnc1OC[C@@](C)(N)CC(C)C` [Example 96, (S)-4-(6-((2-amino-2,4-dimethylpentyl)oxy)-5-methylpyridin-3-yl)quinoline-7-carbonitrile] stands 3 nM; under `CC(C)C[C@](C)(N)COc1ccc(-c2ccnc3ccccc23)cc1S(C)(=O)=O` [Example 115, (S)-2,4-dimethyl-1-(2-(methylsulfonyl)-4-(quinolin-4-yl)phenoxy)pentan-2-amine], 13 nM.
Under `CC(C)C[C@](C)(N)COc1ccc(-c2ccnc3cc(F)cc(F)c23)nc1C(F)F` [Example 129] stands 1.4 nM; under `COc1cc(-c2ccnc(C(F)F)c2)ncc1OC[C@@](C)(N)CC(C)C` [Example 207, (S)-1-((2′-(difluoromethyl)-4-methoxy-[2,4′-bipyridin]-5-yl)oxy)-2,4-dimethylpentan-2-amine], 19 nM.
Compound `CC(C)C[C@](C)(N)COc1ncc(-c2ccnc3cc(C#N)ccc23)cc1F` [Example 99, (S)-4-(6-((2-amino-2,4-dimethylpentyl)oxy)-5-fluoropyridin-3-yl)quinoline-7-carbonitrile] showed an IC50 of 31 nM.
Under `CC(C)C[C@](C)(N)COc1ncc(-c2ccnc3ccc(F)cc23)cc1C(F)F` [Example 200, (S)-1-((3-(difluoromethyl)-5-(6-fluoroquinolin-4-yl)pyridin-2-yl)oxy)-2,4-dimethylpentan-2-amine] stands 1.2 nM.
Under `CC(C)C[C@](C)(N)COc1ncc(-c2ccnc(Cl)c2)cc1C(F)F` [Example 193, (S)-1-((2′-chloro-5-(difluoromethyl)-[3,4′-bipyridin]-6-yl)oxy)-2,4-dimethylpentan-2-amine] stands 2.9 nM.
Under `CC(C)C[C@](C)(N)COc1ccc(-c2ccnc3ccncc23)cc1C(F)(F)F` [Example 85, (S)-1-(4-(1,6-naphthyridin-4-yl)-2-(trifluoromethyl)phenoxy)-2,4-dimethylpentan-2-amine] stands 0.32 nM.
Regarding `CC(=O)Nc1cc(-c2ccc(OC[C@@](C)(N)CC(C)C)c(F)c2)ccn1` [Example 27, (S)—N-(4-(4-((2-amino-2,4-dimethylpentyl)oxy)-3-fluorophenyl)pyridin-2-yl)acetamide], the IC50 amounted to 1 nM.
